Reference: US10016430B2, “1-[2-(aminomethyl)benzyl]-2-thioxo-1,2,3,5-tetrahydro-4H-pyrrolo[3,2-d]pyrimidin-4-ones as inhibitors of myeloperoxidase” (AstraZeneca AB, priority 2014, dated 2018)

Target: activated MPO (Homo sapiens (Human), UniProt P05164)
Experiment: Urate production by activated MPO incubated with xanthine, LC-MS
Type: biochemical
Conditions: activated MPO incubated with xanthine and titrated compound for 80 min, FIG. 3
Text: The dotted line represents the urate formed in the presence of unactivated MPO.
We postulate that tissue hypoxia, the degree of which will be determined by the degree of inflammation and vascular function, has impact on plasma urate concentration. Myocardial ischemia results in accelerated loss of ATP and a corresponding buildup of urate levels in rat hearts (Am. J. Physiol. Heart Circ. Physiol., 2004, 286, H677-H684; J. Biol. Chem., 1995, 270, 18797-18803). Furthermore, increased myocardial production of urate contributes to systemic urate levels and correlates to NYHA class in heart failure patients (Circ. J., 2006, 70, 1006-1011).

Chain of activated MPO (P05164 49-745): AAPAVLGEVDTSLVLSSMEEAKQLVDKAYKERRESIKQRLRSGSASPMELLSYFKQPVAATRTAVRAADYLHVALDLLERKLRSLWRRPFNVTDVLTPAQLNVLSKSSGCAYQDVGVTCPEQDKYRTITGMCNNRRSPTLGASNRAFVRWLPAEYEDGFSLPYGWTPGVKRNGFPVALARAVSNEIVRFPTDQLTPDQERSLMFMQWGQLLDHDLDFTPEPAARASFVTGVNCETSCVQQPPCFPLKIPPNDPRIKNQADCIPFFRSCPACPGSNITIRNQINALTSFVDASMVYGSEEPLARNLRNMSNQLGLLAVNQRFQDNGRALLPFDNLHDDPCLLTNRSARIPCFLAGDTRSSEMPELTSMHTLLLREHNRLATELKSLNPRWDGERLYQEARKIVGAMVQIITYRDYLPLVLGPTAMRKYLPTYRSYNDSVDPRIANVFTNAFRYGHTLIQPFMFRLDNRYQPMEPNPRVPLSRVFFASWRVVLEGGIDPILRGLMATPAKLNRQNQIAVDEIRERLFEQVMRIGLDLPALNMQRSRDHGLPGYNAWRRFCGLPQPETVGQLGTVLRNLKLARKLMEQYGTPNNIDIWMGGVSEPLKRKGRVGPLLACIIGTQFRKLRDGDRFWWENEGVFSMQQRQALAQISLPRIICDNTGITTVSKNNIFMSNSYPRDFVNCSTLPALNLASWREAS

## C[C@@H](N)c1cc(Cl)ccc1Cn1c(=S)[nH]c(=O)c2[nH]ccc21 [Example 3, 1-{2-[(1R)-1-Aminoethyl]-4-chlorobenzyl}-2-thioxo-1,2,3,5-tetrahydro-4H-pyrrolo[3,2-d]pyrimidin-4-one]
  Inhibition of urate production by activated MPO: concentration-dependently inhibited
